Source: paper PMC6147075, “Discovery of novel fragments inhibiting O-acetylserine sulphhydrylase by combining scaffold hopping and ligand–based drug design” (Journal of Enzyme Inhibition and Medicinal Chemistry, 2018)
Like-named read-outs stand apart in the source and are kept apart here.

Columns and labels:
[1] = target: OASS; settings: cited from earlier work
[2] = system: Salmonella; experiment: Activity against Salmonella in vitro; format: cell-based
[3] = target: T1, StOASS-A (Salmonella typhimurium, UniProt P0A1E3); experiment: Fluorimetric binding titration (PLP emission), StOASS-A; set-up: species or system Salmonella enterica serovar Typhimurium; settings: for LE (OASS-A): LE = (1.37/HA). pIC50, HA = heavy atoms; for Kd: 1 µM StOASS-A, 100 mM Hepes pH 7, 20 °C, read-out: Kd OASS-A
T1 construct: His6 (N, cleaved yes); made in house; host or cells: E. coli Rosetta (DE3)
T1 sequence (P0A1E3 whole entry): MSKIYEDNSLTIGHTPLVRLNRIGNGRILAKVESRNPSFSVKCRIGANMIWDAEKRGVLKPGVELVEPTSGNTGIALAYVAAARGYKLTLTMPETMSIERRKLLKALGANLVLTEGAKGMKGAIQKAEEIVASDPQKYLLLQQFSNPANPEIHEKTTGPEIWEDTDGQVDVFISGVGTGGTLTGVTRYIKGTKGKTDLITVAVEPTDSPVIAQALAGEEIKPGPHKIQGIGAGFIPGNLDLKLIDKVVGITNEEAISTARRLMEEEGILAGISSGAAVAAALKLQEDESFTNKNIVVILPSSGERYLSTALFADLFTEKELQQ
Procedure: (§1) The genes cysK and cysM encoding STOASS-A and STOASS-B, respectively, were subcloned from pET16b[34] to pET19m in order to replace the restriction site for Factor Xa with the one for TEV protease. pET19m-STcysK and pET19m-STcysM were transformed in E. coli Rosetta^TM (DE3) competent cells for protein expression. Protein expression and purification was performed following published protocols[34] with some modifications. Briefly, protein expression was induced on bacterial growth in exponential phase by IPTG for 4 and 5 h for OASS-B and OASS-A, respectively. Cells were lysed by pulsed sonication in 50 mM NaP, 300 mM NaCl, pH 7, with the addition of 1 mg/mL lysozyme. Purification was performed by immobilized metal affinity column (IMAC) on Co^2+ ions (Talon™, Clontech Laboratories, Inc., Mountain View, CA). Proteins were eluted with 250 mM (His6-OASS-A) or 600 mM (His6-OASS-B) imidazol. His-tag was removed from His6-OASS-A by treatment with TEV protease during O/N dialysis in 10 mM HEPES pH 8. His-tag was removed from His6-OASS-B by treatment with TEV protease in 20 mM HEPES, 100 mM NaCl, 1 mM TCEP pH 8 for 24 h at 5 °C. […] OASS-A was stored in 10 mM HEPES pH 8 and OASS-B in 20 mM HEPES, 100 mM NaCl, 1 mM TCEP pH 8.
(§2) The concentration of bisulfide was saturating (600 μM), whereas the concentration of OAS was set at Km to increase the sensitivity. The dissociation constant of selected compounds for StOASS-A and OASS-B was measured by a fluorimetric method published elsewhere[23]^,[24]. Briefly, a solution containing 1 µM StOASS-A in 100 mM Hepes pH 7 was titrated with increasing concentrations of compound at 20 °C. The fluorescence emission intensity of the PLP cofactor at 505 nm upon excitation at 412 nm was collected after each addition, subtracted by the blank and normalized by the protein dilution. The dependence of the emission intensity at 505 nm on the concentration of the compound was fitted to a binding isotherm[23] to calculate the dissociation constant of the protein-ligand complex.

[4] = target: T2, OASS-B (Salmonella typhimurium, UniProt P29848); experiment: biochemical; format: binding; settings: for LE (OASS-B): LE = (1.37/HA). pIC50, HA = heavy atoms
T2 construct: His6 (N, cleaved yes); made in house; host or cells: E. coli Rosetta (DE3)
T2 sequence (P29848 1-303): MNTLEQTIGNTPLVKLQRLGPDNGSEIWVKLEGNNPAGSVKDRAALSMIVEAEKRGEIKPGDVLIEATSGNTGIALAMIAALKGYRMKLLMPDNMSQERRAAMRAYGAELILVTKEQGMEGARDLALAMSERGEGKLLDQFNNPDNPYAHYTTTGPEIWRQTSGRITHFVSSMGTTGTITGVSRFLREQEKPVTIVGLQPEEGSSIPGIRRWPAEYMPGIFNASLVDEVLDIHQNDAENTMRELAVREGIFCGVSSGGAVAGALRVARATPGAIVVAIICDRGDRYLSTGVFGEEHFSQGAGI
Procedure: as §1, §2

[5] = target: T2, OASS-B; set-up: method as in PMID 26894308; settings: previously reported reference compound 2; cited from earlier work
[6] = system: cell envelope of Gram-negative bacteria; settings: not told
[7] = target: T3, OASS-A (Salmonella typhimurium, UniProt P0A1E3); experiment: 96-well activity assay (cysteine-ninhydrin), OASS-A; format: biochemical, Salmonella enterica serovar Typhimurium; settings: bisulfide 600 µM, OAS at Km, two replicates
T3 construct: His6 (N, cleaved yes); made in house; host or cells: E. coli Rosetta (DE3)
T3 sequence (P0A1E3 whole entry): as the sequence (P0A1E3 whole entry) above
Procedure: as §1, §2

[8] = target: T2, OASS-B; experiment: 96-well activity assay (cysteine-ninhydrin), OASS-B; format: biochemical; settings: for % inhibition OASS-B: compound 1 µM, bisulfide 600 µM, OAS at Km, two replicates, ns = Not Significant; for inhibition at 1000 µM: read-out: % inhibition OASS-B
Procedure: as §1, §2

[9] = compound 1 µM, ns = Not Significant
[10] = read-out: % inhibition OASS-A, compound 1 mM
[11] = compound 1 mM, read-out: % inhibition OASS-A

Structure (SMILES)	% inhibition OASS-A [7, 9]	% inhibition OASS-B [8]	inhibition at 1000 µM [8] [%]	inhibition at 1000 µM [7, 11] [%]	further results
C/C=C/[C@@H]1C[C@H]1C(=O)O (racemic) [Compound 1, (±)-trans-2-[(1E)-prop-1-en-1-yl]cyclopropanecarboxylic acid]					Kd ([1]; read-out: Kd): 1.46 µM
Cc1ccc(C[C@@]2(C(=O)O)C[C@H]2c2ccccc2)cc1 [Compound 2, (1S,2S)-1–(4-methylbenzyl)-2-phenylcyclopropanecarboxylic acid]					activity when tested against Salmonella in vitro [2]: did not show any activity; Kd ([1]; read-out: Kd-OASS): 0.028 µM; LE (OASS-A) [3]: 0.52 kcal/mol/HA; LE (OASS-B) [4]: 0.50 kcal/mol/HA; Kd [5]: 0.049 µM; permeability through the cell envelope [6]: poor permeability
Cc1ccc(-n2nccc2C(=O)O)cc1 [Compound 4a, 1-(p-tolyl)-1H-pyrazole-5-carboxylic acid]	ns^b	ns	65 ± 2		% inhibition OASS-A ([7]; compound 1 mM): 45 ± 3%; inhibition at 1000 µM [7, 10]: 50%
O=C(O)c1ccnn1-c1ccccc1 [Compound 4b, 1-phenyl-1H-pyrazole-5-carboxylic acid]	ns		65 ± 1	66 ± 1	inhibition at 1 µM [8]: 11 ± 3%
O=C(O)c1ccn[nH]1 [Compound 4c, 1H-pyrazole-5-carboxylic acid]		ns	82 ± 1	> 90	inhibition at 1 µM [7, 9]: 9 ± 7%; % inhibition OASS-A ([7]; compound 1 mM): 94 ± 1%; Kd [3]: 122 ± 5 µM; LE (OASS-A) [3]: 0.67 kcal/mol/HA; Kd [4]: 272 ± 10 µM; LE (OASS-B) [4]: 0.61 kcal/mol/HA
O=C(O)c1ccnn1-c1ccc(Cl)cc1 [Compound 4d, 1–(4-chlorophenyl)-1H-pyrazole-5-carboxylic acid]	ns		56 ± 1	60 ± 2	inhibition at 1 µM [8]: 9 ± 6%
O=C(O)c1ccnn1-c1ccc(Br)cc1 [Compound 4e, 1–(4-bromophenyl)-1H-pyrazole-5-carboxylic acid]	ns	ns	58 ± 2		% inhibition OASS-A ([7]; compound 1 mM): 84 ± 1%; inhibition at 1000 µM [7, 10]: > 80%
CC(C)(C)c1ccc(-n2nccc2C(=O)O)cc1 [Compound 4f, 1–(4-(tert-butyl)phenyl)-1H-pyrazole-5-carboxylic acid]	ns	ns	52 ± 5	47 ± 1	
O=C(O)c1ccnn1-c1ccc(F)cc1 [Compound 4g, 1–(4-fluorophenyl)-1H-pyrazole-5-carboxylic acid]			62 ± 1	95 ± 1	inhibition at 1 µM [7, 9]: 8 ± 1%; inhibition at 1 µM [8]: 14 ± 2%
O=C(O)c1ccnn1C1CCCCC1 [Compound 4h, 1-cyclohexyl-1H-pyrazole-5-carboxylic acid]	ns	ns	30 ± 1	57 ± 1	
O=C(O)c1ccn(-c2ccc(Cl)cc2)n1 [Compound 5d, 1–(4-chlorophenyl)-1H-pyrazole-3-carboxylic acid]	ns		63 ± 1	63 ± 1	inhibition at 1 µM [8]: 15 ± 2%
O=C(O)c1ccn(-c2ccc(Br)cc2)n1 [Compound 5e, 1–(4-bromophenyl)-1H-pyrazole-3-carboxylic acid]	ns	ns	35 ± 2	62 ± 1	
CC(C)(C)c1ccc(-n2ccc(C(=O)O)n2)cc1 [Compound 5f, 1–(4-(tert-butyl)phenyl)-1H-pyrazole-3-carboxylic acid]	ns		82 ± 1	81 ± 1	inhibition at 1 µM [8]: 11 ± 6%
O=C(O)c1ccn(-c2ccc(F)cc2)n1 [Compound 5g, 1–(4-fluorophenyl)-1H-pyrazole-3-carboxylic acid]	ns	ns	36 ± 3	73 ± 1	
O=C(O)c1ccn(C2CCCCC2)n1 [Compound 5h, 1-cyclohexyl-1H-pyrazole-3-carboxylic acid]	ns	ns	43 ± 3	79 ± 1	
O=C(O)c1ccc[nH]1 [Compound 14, 1H-pyrrole-2-carboxylic acid]					Kd [3]: 59 ± 11 µM; LE (OASS-A) [3]: 0.72 kcal/mol/HA; Kd [4]: 465 ± 50 µM; LE (OASS-B) [4]: 0.60 kcal/mol/HA
O=C(O)c1nccs1 [Compound 16, thiazole-2-carboxylic acid]					Kd [3]: 52 ± 6 µM; LE (OASS-A) [3]: 0.74 kcal/mol/HA; Kd [4]: 338 ± 14 µM; LE (OASS-B) [4]: 0.60 kcal/mol/HA
